Experiments:
[1] = system: EGFR (Human), P00533 [Assessment of Proliferation in EGFR DelE746_A750 Mutant Expressing HCC827 Cells]
[2] = system: EGFR (Human), P00533 [T790M/L858R]; conditions: nci-h1975
Sequence of EGFR (Human), P00533 [T790M/L858R] (P00533 whole entry T790M/L858R, looked up): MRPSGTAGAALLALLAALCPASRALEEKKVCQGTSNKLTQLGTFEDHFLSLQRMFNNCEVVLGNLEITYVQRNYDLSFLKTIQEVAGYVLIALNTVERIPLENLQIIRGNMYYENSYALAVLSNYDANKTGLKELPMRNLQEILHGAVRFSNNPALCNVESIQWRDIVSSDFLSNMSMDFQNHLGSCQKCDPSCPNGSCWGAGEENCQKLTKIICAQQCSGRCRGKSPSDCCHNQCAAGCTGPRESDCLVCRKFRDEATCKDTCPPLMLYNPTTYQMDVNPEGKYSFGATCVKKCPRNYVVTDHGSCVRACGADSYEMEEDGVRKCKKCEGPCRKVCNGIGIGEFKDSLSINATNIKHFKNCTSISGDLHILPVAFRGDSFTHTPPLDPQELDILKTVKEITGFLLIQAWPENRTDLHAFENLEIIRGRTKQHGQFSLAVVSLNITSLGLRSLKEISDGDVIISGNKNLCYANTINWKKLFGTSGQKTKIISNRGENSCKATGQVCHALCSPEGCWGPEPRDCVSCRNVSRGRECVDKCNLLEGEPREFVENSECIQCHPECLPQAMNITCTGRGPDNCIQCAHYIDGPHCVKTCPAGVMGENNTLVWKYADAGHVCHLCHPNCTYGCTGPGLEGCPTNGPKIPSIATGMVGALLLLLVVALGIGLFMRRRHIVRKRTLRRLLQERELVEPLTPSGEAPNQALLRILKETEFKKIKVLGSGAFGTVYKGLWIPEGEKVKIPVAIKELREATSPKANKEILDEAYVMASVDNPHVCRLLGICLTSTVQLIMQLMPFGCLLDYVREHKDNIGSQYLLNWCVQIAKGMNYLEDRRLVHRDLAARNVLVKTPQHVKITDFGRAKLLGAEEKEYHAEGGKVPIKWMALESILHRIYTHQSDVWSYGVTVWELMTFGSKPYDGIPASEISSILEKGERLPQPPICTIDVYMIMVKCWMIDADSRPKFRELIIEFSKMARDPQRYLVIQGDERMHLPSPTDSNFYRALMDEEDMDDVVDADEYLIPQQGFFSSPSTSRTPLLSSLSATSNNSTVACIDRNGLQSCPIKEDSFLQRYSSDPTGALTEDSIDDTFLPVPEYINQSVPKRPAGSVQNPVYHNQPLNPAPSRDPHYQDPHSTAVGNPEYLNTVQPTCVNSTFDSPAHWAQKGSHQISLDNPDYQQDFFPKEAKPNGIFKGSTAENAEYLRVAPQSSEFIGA

Sequence of EGFR (Human), P00533 [Assessment of Proliferation in EGFR DelE746_A750 Mutant Expressing HCC827 Cells] (P00533 whole entry, looked up, stated change not applied): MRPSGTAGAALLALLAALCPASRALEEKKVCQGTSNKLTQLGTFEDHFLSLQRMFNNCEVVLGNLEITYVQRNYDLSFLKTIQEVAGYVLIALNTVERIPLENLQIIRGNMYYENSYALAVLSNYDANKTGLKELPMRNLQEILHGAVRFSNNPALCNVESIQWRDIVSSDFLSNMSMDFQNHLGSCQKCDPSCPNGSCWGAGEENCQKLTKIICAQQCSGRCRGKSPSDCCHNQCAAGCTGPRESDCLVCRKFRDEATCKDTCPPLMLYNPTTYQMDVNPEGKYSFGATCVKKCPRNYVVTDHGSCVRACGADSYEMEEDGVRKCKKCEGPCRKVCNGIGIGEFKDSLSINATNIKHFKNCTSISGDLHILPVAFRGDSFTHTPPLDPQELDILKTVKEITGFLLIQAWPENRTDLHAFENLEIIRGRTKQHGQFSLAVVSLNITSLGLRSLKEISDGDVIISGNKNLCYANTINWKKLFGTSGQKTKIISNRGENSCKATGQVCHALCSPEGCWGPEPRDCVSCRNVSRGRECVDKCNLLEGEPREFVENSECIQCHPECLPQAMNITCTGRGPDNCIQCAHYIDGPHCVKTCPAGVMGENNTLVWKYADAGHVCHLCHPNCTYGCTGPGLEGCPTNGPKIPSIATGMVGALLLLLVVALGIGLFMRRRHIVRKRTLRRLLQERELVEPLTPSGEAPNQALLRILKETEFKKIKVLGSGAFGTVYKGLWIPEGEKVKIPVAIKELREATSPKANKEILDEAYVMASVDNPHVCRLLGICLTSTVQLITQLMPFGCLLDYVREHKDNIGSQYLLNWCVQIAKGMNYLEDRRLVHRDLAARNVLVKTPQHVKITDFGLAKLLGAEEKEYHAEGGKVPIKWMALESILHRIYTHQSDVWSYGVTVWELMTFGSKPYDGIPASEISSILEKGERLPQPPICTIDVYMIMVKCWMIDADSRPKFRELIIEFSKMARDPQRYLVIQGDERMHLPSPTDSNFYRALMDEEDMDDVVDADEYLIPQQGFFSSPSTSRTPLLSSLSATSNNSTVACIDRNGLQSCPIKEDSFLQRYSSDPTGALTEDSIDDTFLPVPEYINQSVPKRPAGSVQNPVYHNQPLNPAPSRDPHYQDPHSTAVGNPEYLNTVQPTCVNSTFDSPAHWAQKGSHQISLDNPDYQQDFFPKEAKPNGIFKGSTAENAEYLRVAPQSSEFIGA

Row | SMILES | GI50 [1] [nM] | GI50 [2] [nM]
1 | C=CC(=O)Nc1cccc(Nc2nc(Nc3ccc(CN4CCCCC4)cc3)nc3ccsc23)c1 | ≤ 50 | ≤ 50
2 | C=CC(=O)Nc1cccc(Oc2nc(Nc3ccc(C(=O)NCCN4CCCC4)cc3)nc3ccsc23)c1 | ≤ 50 | ≤ 50
3 | C=CC(=O)Nc1cccc(Oc2nc(Nc3ccc(S(=O)(=O)N4CCN(CC)CC4)cc3)nc3ccsc23)c1 | ≤ 50 | 50 to 100
4 | C=CC(=O)Nc1cccc(Oc2nc(Nc3ccc(OCCN(C)C)c(F)c3)nc3ccsc23)c1 | ≤ 50 | ≤ 50
5 | C=CC(=O)Nc1cccc(Oc2nc(Nc3ccc(N4CCS(=O)(=O)CC4)cc3)nc3ccsc23)c1 | ≤ 50 | ≤ 50
6 | C=CC(=O)Nc1cccc(Oc2nc(Nc3ccc(N4CCN(C)CC4)c(F)c3)nc3ccsc23)c1 | ≤ 50 | ≤ 50
7 | C=CC(=O)Nc1cccc(Oc2nc(Nc3ccc(S(=O)(=O)NCCN(C)C)cc3)nc3ccsc23)c1 | ≤ 50 | ≤ 50
8 | C=CC(=O)Nc1cccc(Oc2nc(Nc3ccc(N4CCN(C)CC4)nc3)nc3ccsc23)c1 | ≤ 50 | ≤ 50
9 | C=CC(=O)Nc1cccc(Oc2nc(Nc3ccc(N4CCC(N5CCCC5)CC4)c(F)c3)nc3ccsc23)c1 | ≤ 50 | ≤ 50
10 | C=CC(=O)Nc1cccc(Oc2nc(Nc3ccc(NC4CCN(C(C)C)CC4)nc3)nc3ccsc23)c1 | 50 to 100 | 50 to 100
11 | C=CC(=O)Nc1cccc(Oc2nc(Nc3ccc(CN4CCCCC4)cc3)nc3ccsc23)c1 | ≤ 50 | ≤ 50
12 | C=CC(=O)Nc1cccc(Nc2nc(Nc3ccc(CCN4CCN(C)CC4)cc3)nc3ccsc23)c1 | 50 to 100 | ≤ 50
13 | C=CC(=O)Nc1cccc(Oc2nc(Nc3ccc(NC(=O)N4CCN(C)CC4)c(F)c3)nc3ccsc23)c1 | ≤ 50 | 50 to 100
14 | C=CC(=O)Nc1cccc(Oc2nc(Nc3ccc(CN4CCN(C)CC4)cc3)nc3ccsc23)c1 | ≤ 50 | ≤ 50
15 | C=CC(=O)Nc1cccc(Oc2nc(Nc3ccc(C4CCN(C)CC4)c(F)c3)nc3ccsc23)c1 | ≤ 50 | ≤ 50
16 | C=CC(=O)Nc1cccc(Oc2nc(Nc3ccc(C4CCCN(C)C4)cc3)nc3ccsc23)c1 (centres undefined) | ≤ 50 | ≤ 50
17 | C=CC(=O)Nc1cccc(Oc2nc(Nc3ccc4c(c3)CCN4C(=O)CN(C)C)nc3ccsc23)c1 | ≤ 50 | ≤ 50
18 | C=CC(=O)Nc1cccc(Oc2nc(Nc3ccc(N4CCN(S(=O)(=O)CC)CC4)c(F)c3)nc3ccsc23)c1 | 50 to 100 | ≤ 50
19 | C=CC(=O)Nc1cccc(Oc2nc(Nc3ccc(CN4CCC(N(C)C)CC4)c(F)c3)nc3ccsc23)c1 | ≤ 50 | 50 to 100
20 | C=CC(=O)Nc1cccc(Nc2nc(Nc3ccc(C4CCCN(C)C4)cc3)nc3ccsc23)c1 (centres undefined) | ≤ 50 | ≤ 50

Row | SMILES | GI50 [1] [nM] | GI50 [2] [nM]
21 | C=CC(=O)Nc1cccc(Oc2nc(Nc3ccc(N4CCN(CCOC)CC4)cc3)nc3ccsc23)c1 | ≤ 50 | ≤ 50
22 | C=CC(=O)Nc1cccc(Oc2nc(Nc3ccc(N4CCCCC4)cc3)nc3ccsc23)c1 | 100 to 1000 | ≤ 50
23 | C=CC(=O)Nc1cccc(Oc2nc(Nc3ccc(N4CCC(N5CCCCC5)CC4)c(F)c3)nc3ccsc23)c1 | ≤ 50 | ≤ 50
24 | C=CC(=O)Nc1cccc(Oc2nc(Nc3ccc(N4CCN(C)CC4)c(OC)c3)nc3ccoc23)c1 | ≤ 50 | ≤ 50
25 | C=CC(=O)Nc1cccc(Oc2nc(Nc3ccc(CCO)cc3)nc3ccsc23)c1 | ≤ 50 | ≤ 50
26 | C=CC(=O)Nc1cccc(Oc2nc(Nc3ccc(CN4CCN(CC5CC5)CC4)cc3)nc3ccsc23)c1 | ≤ 50 | ≤ 50
27 | C=CC(=O)Nc1cccc(Oc2nc(Nc3ccc(C4CCN(CC)CC4)cc3)nc3ccsc23)c1 | ≤ 50 | ≤ 50
28 | C=CC(=O)Nc1cccc(Oc2nc(Nc3ccc(C(=O)N4CCN(S(=O)(=O)CC)CC4)c(Cl)c3)nc3ccsc23)c1 | ≤ 50 | 50 to 100
29 | C=CC(=O)Nc1cccc(Sc2nc(Nc3ccc(N4CCN(C)CC4)cc3)nc3ccsc23)c1 | ≤ 50 | ≤ 50
30 | C=CC(=O)Nc1cccc(Oc2nc(Nc3ccc(N4CCN(C)CC4)c(Cl)c3)nc3ccsc23)c1 | ≤ 50 | ≤ 50
31 | C=CC(=O)Nc1cccc(Oc2nc(Nc3ccc(N4CCN(CCO)CC4)cn3)nc3ccsc23)c1 | ≤ 50 | 50 to 100
32 | C=CC(=O)Nc1cccc(Oc2nc(Nc3ccc(N4CCN(C(=O)CN(C)C)CC4)c(F)c3)nc3ccsc23)c1 | ≤ 50 | ≤ 50
33 | C=CC(=O)Nc1cccc(Oc2nc(Nc3ccc4c(ccn4C)c3)nc3ccsc23)c1 | 50 to 100 | ≤ 50
34 | C=CC(=O)Nc1cccc(Oc2nc(Nc3ccc(NCCN(C)C)cc3)nc3ccsc23)c1 | ≤ 50 | 100 to 1000
35 | C=CC(=O)Nc1cccc(Oc2nc(Nc3ccc(N4CCN(C(=O)N5CCOCC5)CC4)cc3)nc3ccsc23)c1 | ≤ 50 | 50 to 100
36 | C=CC(=O)Nc1cccc(Oc2nc(Nc3ccc(CN4CCN(CC)CC4)cc3)nc3ccsc23)c1 | ≤ 50 | ≤ 50
37 | C=CC(=O)Nc1cccc(Oc2nc(Nc3ccc(N4CCN(C5CCN(C)CC5)CC4)nc3)nc3ccsc23)c1 | ≤ 50 | ≤ 50
38 | C=CC(=O)Nc1cccc(Oc2nc(Nc3ccc(CN4CCOCC4)cc3)nc3ccsc23)c1 | 50 to 100 | ≤ 50
39 | C=CC(=O)Nc1cccc(Oc2nc(Nc3ccc(CN4CCC(N(C)C)CC4)cc3)nc3ccoc23)c1 | 50 to 100 | 50 to 100

Further lines, with some results ahead:

Row | GI50 [1] [nM] | SMILES | GI50 [2] [nM]
40 | ≤ 50 | C=CC(=O)Nc1cccc(Nc2nc(Nc3ccc(C4CCN(C)CC4)c(F)c3)nc3ccsc23)c1 | ≤ 50
41 | ≤ 50 | C=CC(=O)Nc1cccc(Oc2nc(Nc3ccc(N4CCN(C)CC4)c(C)c3)nc3ccsc23)c1 | ≤ 50
42 | ≤ 50 | C=CC(=O)Nc1cccc(Oc2nc(Nc3ccc(C4CCN(C)CC4)cc3)nc3ccsc23)c1 | ≤ 50
43 | ≤ 50 | C=CC(=O)Nc1cccc(Oc2nc(Nc3ccc(N4CCC(N5CCOCC5)CC4)c(F)c3)nc3ccsc23)c1 | ≤ 50
44 | ≤ 50 | C=CC(=O)Nc1cccc(Oc2nc(Nc3ccc(OCCN(CC)CC)c(F)c3)nc3ccsc23)c1 | ≤ 50
45 | 100 to 1000 | C=CC(=O)Nc1cccc(Oc2nc(Nc3ccc(CC(=O)NC4CCN(C)CC4)cc3)nc3ccsc23)c1 | ≤ 50
46 | ≤ 50 | C=CC(=O)Nc1cccc(Oc2nc(Nc3ccc(NC4CCN(C)CC4)cc3)nc3ccsc23)c1 | 100 to 1000
47 | ≤ 50 | C=CC(=O)Nc1cccc(Oc2nc(Nc3ccc(CN(CC)CC)cc3)nc3ccsc23)c1 | ≤ 50
48 | ≤ 50 | C=CC(=O)Nc1cccc(Oc2nc(Nc3ccc(OCCN4CCOCC4)c(OC)c3)nc3ccsc23)c1 | ≤ 50
49 | ≤ 50 | C=CC(=O)Nc1cccc(Nc2nc(Nc3ccc(C4CCN(C)CC4)cc3)nc3ccsc23)c1 | ≤ 50
50 | ≤ 50 | C=CC(=O)Nc1cccc(Oc2nc(Nc3ccc(N4CCN(CC(F)F)CC4)cc3)nc3ccsc23)c1 | ≤ 50
51 | ≤ 50 | C=CC(=O)Nc1cccc(Oc2nc(Nc3ccc(CN4CCN(C)CC4)c(F)c3)nc3ccsc23)c1 | ≤ 50
52 | ≤ 50 | C=CC(=O)Nc1cccc(Oc2nc(Nc3ccc(N4CCN(S(=O)(=O)CC)CC4)cc3)nc3ccsc23)c1 | 50 to 100
53 | 50 to 100 | C=CC(=O)Nc1cccc(Oc2nc(Nc3ccc(C(=O)OCCCN(C)C)cc3)nc3ccsc23)c1 | 50 to 100
54 | 50 to 100 | C=CC(=O)Nc1cccc(Oc2nc(Nc3ccc(OCCN4CCOCC4)c(F)c3)nc3ccsc23)c1 | ≤ 50
55 | ≤ 50 | C=CC(=O)Nc1cccc(Oc2nc(Nc3ccc(CCN4CCN(S(C)(=O)=O)CC4)cc3)nc3ccsc23)c1 | ≤ 50
56 | ≤ 50 | C=CC(=O)Nc1cccc(Oc2nc(Nc3ccc(N4CCN(CC)CC4)cn3)nc3ccsc23)c1 | ≤ 50

Row | GI50 [1] [nM] | SMILES | GI50 [2] [nM]
57 | ≤ 50 | C=CC(=O)Nc1ccc(F)c(Oc2nc(Nc3ccc(N4CCN(C)CC4)cc3)nc3ccsc23)c1 | ≤ 50
58 | ≤ 50 | C=CC(=O)Nc1cccc(Oc2nc(Nc3ccc(C(=O)NCCN(C)C)cc3)nc3ccsc23)c1 | 100 to 1000
59 | ≤ 50 | C=CC(=O)Nc1cccc(Oc2nc(Nc3ccc(N4CCNCC4)c(Cl)c3)nc3ccsc23)c1 | ≤ 50
60 | ≤ 50 | C=CC(=O)Nc1cccc(Oc2nc(Nc3ccc(CCN(C)C)cc3)nc3ccsc23)c1 | ≤ 50
61 | ≤ 50 | C=CC(=O)Nc1cccc(Oc2nc(Nc3ccc(C[S+](C)[O-])cc3)nc3ccsc23)c1 (centres undefined) | ≤ 50
62 | ≤ 50 | C=CC(=O)Nc1cccc(Oc2nc(Nc3ccc(N4CCC(N5CCOCC5)CC4)cc3)nc3ccsc23)c1 | ≤ 50
63 | ≤ 50 | C=CC(=O)Nc1cccc(Oc2nc(Nc3ccc(N4CCNCC4)cc3)nc3ccsc23)c1 | 100 to 1000
64 | ≤ 50 | C=CC(=O)Nc1cccc(Oc2nc(Nc3ccc(N4CCC(N5CCOCC5)CC4)c(Cl)c3)nc3ccsc23)c1 | ≤ 50
65 | ≤ 50 | C=CC(=O)Nc1cccc(Oc2nc(Nc3ccc(C4CCN(C)CC4)c(F)c3)nc3ccoc23)c1 | ≤ 50
66 | 50 to 100 | C=CC(=O)Nc1cccc(Oc2nc(Nc3ccc(OCCOC)c(F)c3)nc3ccsc23)c1 | ≤ 50
67 | 50 to 100 | C=CC(=O)Nc1cccc(Oc2nc(Nc3ccc(N4CCOCC4)cc3)nc3ccsc23)c1 | ≤ 50
68 | 50 to 100 | C=CC(=O)Nc1cccc(Oc2nc(Nc3ccc(OCCOC)cc3)nc3ccsc23)c1 | ≤ 50
69 | 50 to 100 | C=CC(=O)Nc1cccc(Oc2nc(Nc3ccc(N4CCN(CC(F)(F)F)CC4)cc3)nc3ccsc23)c1 | ≤ 50
70 | ≤ 50 | C=CC(=O)Nc1cccc(Oc2nc(Nc3ccc(CN(C)C)cc3C)nc3ccsc23)c1 | ≤ 50
71 | ≤ 50 | C=CC(=O)Nc1cccc(Oc2nc(Nc3ccc(N4CCC(CN(C)C)CC4)cc3)nc3ccsc23)c1 | ≤ 50
72 | 50 to 100 | C=CC(=O)Nc1cccc(Oc2nc(Nc3ccc(C(=O)N(C)C)c(Cl)c3)nc3ccsc23)c1 | ≤ 50
